Experimental data taken from patent US11883387B2, “PqsR inverse agonists” (HELMHOLTZ-ZENTRUM FÜR INFEKTIONSFORSCHUNG GMBH, priority 2018, dated 2024).

Key:
PqsR = PqsR (Pseudomonas aeruginosa, UniProt Q9I4X0); assay: E. coli based β-galactosidase reporter gene assay (PqsR inverse agonistic activity); type: cell-based; design: expressed in transfected cells; host or cells: Escherichia coli DH5α
Procedure, shortened: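 E. coli DH5α carrying pEAL08-2 (tac-driven pqsR with pqsA-lacZ) was grown to OD600 0.2 and incubated with 0.001–10 μM compound plus 50 nM PQS for 2.5 h at 37 °C. β-Galactosidase activity was measured by ONPG conversion in permeabilized cells and normalized between the no-PQS and solvent controls. IC50 came from concentration variation.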

[1] = Metabolic stability in mouse liver microsomes (MLM); type: in vitro ADME; details: 1 μM compound, 0.5 mg/mL MLM, 1 mM NADPH, 37° C., read-out: half-life (t1/2) towards MLM
Procedure: For the evaluation of phase I metabolic stability, the compound (1 μM) was incubated with 0.5 mg/mL MLM (Corning) and 1 mM NADPH at 37° C. for 0, 5, 10, 15 and 30 min. The metabolic stability of Verapamil, Diphenhydramine and Benzydamine (1 μM each) were determined in parallel to confirm the enzymatic activity of the MLM. The incubation was stopped by addition of 2 volumes of acetonitrile containing internal standard (1 μM Leucine Enkephaline). Samples were centrifuged (15 min, 3,500 rpm). Concentration of the remaining test compound at the different time points was analyzed by HPLC-MS/MS and used to determine half-life (t1/2).

[2] = Kinetic Turbidimetric Aqueous Solubility at room temperature for 5 min; type: physicochemical; details: PBS buffer, kinetic from dmso stock, 2% DMSO
Procedure: Kinetic Turbidimetric Aqueous Solubility at room temperature for 5 min. Test compound was diluted in PBS buffer to give a range of concentrations (typically 0.4, 2, 4, 20, 40, 100, and 200 μM, final DMSO concentration 2%) and incubated at room temperature for 5 min. Absorbance was measured at a wavelength of 620 nm and the solubility was estimated from the concentration of test compound that produces an increase in absorbance above the vehicle control (i.e., […]). Data was analyzed by fitting a four parameter sigmoidal function to the measured and normalized absorbances and AUC calculation providing access to Log S (decadic logarithm of the solubility).

[3] = test system: P. aeruginosa pyocyanin production; assay: Pyocyanin assay; type: cell-based, P. aeruginosa PA14; details: Pseudomonas aeruginosa, PA14, 16 h, read-out: IC50-value towards pyocyanin production, PA14 in PPGAS medium, 16 h
Procedure, shortened: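 PA14 in PPGAS medium from OD600 0.02 grown 16 h at 37 °C, 200 rpm, with compounds. Pyocyanin extracted with chloroform, back-extracted into 0.2 M HCl, OD520 normalised to OD600.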

PqsR, sequence (Q9I4X0 whole entry): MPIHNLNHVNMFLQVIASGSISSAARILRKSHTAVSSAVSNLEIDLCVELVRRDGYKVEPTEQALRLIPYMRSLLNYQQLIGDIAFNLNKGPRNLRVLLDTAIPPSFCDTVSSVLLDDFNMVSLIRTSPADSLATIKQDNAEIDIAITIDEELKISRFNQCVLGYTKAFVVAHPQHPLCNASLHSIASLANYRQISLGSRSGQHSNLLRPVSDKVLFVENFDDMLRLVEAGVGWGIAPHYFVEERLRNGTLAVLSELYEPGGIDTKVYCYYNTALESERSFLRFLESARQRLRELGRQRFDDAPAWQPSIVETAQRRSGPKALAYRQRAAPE

| Structure (SMILES) | IC50 (PqsR) [nM] | half-life at 1 μM [1] [min] | solubility at 5 min [2] [µM] | IC50 [3] [nM] |
| --- | --- | --- | --- | --- |
| Fc1ccc(Oc2ccc(-c3nc(CNc4ccnc(C(F)(F)F)c4)cs3)cn2)cc1 [Compound 083, N-((2-(6-(4-Fluorophenoxy)pyridin-3-yl)thiazol-4-yl)methyl)-2-(trifluoromethyl)pyridin-4-amine] | 51 to 250 | > 60 | – | – |
| O=C(c1ccccc1)c1ccc(-n2cc(CSc3ccnc(C(F)(F)F)c3)nn2)cc1 [Compound 057, Phenyl(4-(4-(((2-(trifluoromethyl)pyridin-4-yl)thio)methyl)-1H-1,2,3-triazol-1-yl)phenyl)methanone] | 51 to 250 | > 60 | – | – |
| Fc1ccc(Oc2ccc(-c3nc(CNc4ccnc(C(F)(F)F)c4)cs3)cc2)cc1 [Compound 088, N-((2-(4-(4-Fluorophenoxy)phenyl)thiazol-4-yl)methyl)-2-(trifluoromethyl)pyridin-4-amine] | ≤ 50 | > 60 | – | – |
| FC(F)(F)c1cc(NCc2cn(-c3ccc(Oc4ccc(Cl)cc4)cc3)nn2)ccn1 [Compound 037, N-((1-(4-(4-Chlorophenoxy)phenyl)-1H-1,2,3-triazol-4-yl)methyl)-2-(trifluoromethyl)pyridin-4-amine] | ≤ 50 | > 60 | > 10 | – |
| FC(F)(F)c1cc(NCc2ccc(-c3ccc(Cl)nc3)cn2)ccn1 [Compound 098, N-((6′-Chloro-[3,3′-bipyridin]-6-yl)methyl)-2-(trifluoromethyl)pyridin-4-amine] | 51 to 250 | > 60 | ≥ 100 | – |
| FC(F)(F)c1cc(NCc2ccc(-c3cccc(Oc4ccccc4)c3)cn2)ccn1 [Compound 103, N-((5-(3-Phenoxyphenyl)pyridin-2-yl)methyl)-2-(trifluoromethyl)pyridin-4-amine] | 251 to 1000 | 31 to 60 | – | 1000 to 5000 |
| Fc1cccc(Oc2ccc(-n3cc(CNc4ccnc(C(F)(F)F)c4)nn3)cc2)c1 [Compound 145, N-((1-(4-(3-fluorophenoxy)phenyl)-1H-1,2,3-triazol-4-yl)methyl)-2-(trifluoromethyl)pyridin-4-amine] | ≤ 50 | – | > 25 | ≤ 250 |
| FC(F)(F)c1cc(NCc2cc(-c3ccc(Oc4ccccc4)cc3)n[nH]2)ccn1 [Compound 096, N-((3-(4-Phenoxyphenyl)-1H-pyrazol-5-yl)methyl)-2-(trifluoromethyl)pyridin-4-amine] | 51 to 250 | – | > 10 | 251 to 1000 |
| FC(F)(F)c1cc(NCc2cn(-c3ccc(Oc4ccccc4)cc3)nn2)cc(Cl)n1 [Compound 032, 2-Chloro-N-((1-(4-phenoxyphenyl)-1H-1,2,3-triazol-4-yl)methyl)-6-(trifluoromethyl)pyridin-4-amine] | ≤ 50 | > 60 | – | – |
| CC(C)Oc1ccc(-c2ncc(CNc3cc(Cl)nc(C(F)(F)F)c3)s2)cc1 [Compound 161, 2-Chloro-N-((2-(4-isopropoxyphenyl)thiazol-5-yl)methyl)-6-(trifluoromethyl)pyridin-4-amine] | ≤ 50 | – | > 25 | ≤ 250 |
| Nc1cc(SCc2cnc(-c3ccc(Oc4ccccc4)cc3)s2)nc(C(F)(F)F)n1 [Compound 068, 6-(((2-(4-phenoxyphenyl)thiazol-5-yl)methyl)thio)-2-(trifluoromethyl)pyrimidin-4-amine] | – | > 60 | > 10 | – |
| FC(F)(F)c1cc(NCc2cn(-c3ccc(OC4CCOC4)c(Cl)c3)nn2)ccn1 (stereo not shown) [Compound 153, N-((1-(3-chloro-4-((tetrahydrofuran-3-yl)oxy)phenyl)-1H-1,2,3-triazol-4-yl)methyl)-2-(trifluoromethyl)pyridin-4-amine] | ≤ 50 | – | > 25 | 251 to 1000 |
| N#Cc1cc(NCc2cn(-c3ccc(Oc4ccccc4)cc3)nn2)cc(Cl)n1 [Compound 051, 6-Chloro-4-(((1-(4-phenoxyphenyl)-1H-1,2,3-triazol-4-yl)methyl)amino)picolinonitrile] | ≤ 50 | – | > 50 | ≤ 250 |
| FC(F)(F)c1cc(NCc2cn(-c3ccc(Br)cc3)nn2)ccn1 [Compound 039, N-((1-(4-Bromophenyl)-1H-1,2,3-triazol-4-yl)methyl)-2-(trifluoromethyl)pyridin-4-amine] | 251 to 1000 | 31 to 60 | > 50 | – |
| CC(C)Oc1ccc(-c2ncc(CNc3cc(Cl)nc(C(F)(F)F)c3)cn2)cc1Cl [Compound 166] | ≤ 50 | – | > 25 | ≤ 250 |
| Clc1cc(NCc2cnc(-c3ccc(Oc4ccccc4)cc3)s2)ccn1 [Compound 093, 2-Chloro-N-((2-(4-phenoxyphenyl)thiazol-5-yl)methyl)pyridin-4-amine] | ≤ 50 | 31 to 60 | – | 251 to 1000 |
| FC(F)(F)c1cc(NCc2cc(-c3ccc(Oc4ccccc4)cc3)no2)ccn1 [Compound 139, N-((3-(4-phenoxyphenyl)isoxazol-5-yl)methyl)-2-(trifluoromethyl)pyridin-4-amine] | ≤ 50 | 31 to 60 | – | – |
| N#Cc1cc(NCc2cn(-c3ccc(Oc4ccccc4)cc3)nn2)ccn1 [Compound 041, 4-(((1-(4-Phenoxyphenyl)-1H-1,2,3-triazol-4-yl)methyl)amino)picolinonitrile] | ≤ 50 | 31 to 60 | > 10 | – |
| FC(F)(F)c1cc(NCc2cn(-c3ccc(Oc4ccccc4)cc3)nn2)cc(I)n1 [Compound 007, 2-Iodo-N-((1-(4-phenoxyphenyl)-1H-1,2,3-triazol-4-yl)methyl)-6-(trifluoromethyl)pyridin-4-amine] | ≤ 50 | 31 to 60 | – | 251 to 1000 |
| Clc1cc(NCc2cn(-c3ccc(Oc4ccccc4)cc3)nn2)cc(Cl)n1 [Compound 048, 2,6-Dichloro-N-((1-(4-phenoxyphenyl)-1H-1,2,3-triazol-4-yl)methyl)pyridin-4-amine] | ≤ 50 | 31 to 60 | – | ≤ 250 |
| FC(F)(F)c1cc(NCc2ncc(-c3ccc(Oc4ccccc4)cc3)s2)ccn1 [Compound 078, N-((5-(4-Phenoxyphenyl)thiazol-2-yl)methyl)-2-(trifluoromethyl)pyridin-4-amine] | ≤ 50 | – | > 10 | ≤ 250 |
| CC(C)Oc1ccc(-n2cc(CNc3ccnc([N+](=O)[O-])c3)nn2)cc1Cl [Compound 157, N-((1-(3-chloro-4-isopropoxyphenyl)-1H-1,2,3-triazol-4-yl)methyl)-2-nitropyridin-4-amine] | ≤ 50 | – | > 10 | ≤ 250 |
| COc1ccc(-c2ncc(CSc3cc(N)nc(C(F)(F)F)n3)s2)cc1Cl [Compound 069, 6-(((2-(3-chloro-4-methoxyphenyl)thiazol-5-yl)methyl)thio)-2-(trifluoromethyl) pyrimidin-4-amine] | – | > 60 | > 25 | – |
| Nc1cc(SCc2nc3cc(Oc4ccccc4)ccc3[nH]2)cc(C(F)(F)F)n1 [Compound 183, 4-(((5-phenoxy-1H-benzo[d]imidazol-2-yl)methyl)thio)-6-(trifluoromethyl)pyridin-2-amine] | ≤ 50 | – | > 25 | ≤ 250 |
| FC(F)(F)c1cc(NCc2cnc(-c3ccc(Oc4ccccc4)cc3)s2)cc(Cl)n1 [Compound 092, 2-Chloro-N-((2-(4-phenoxyphenyl)thiazol-5-yl)methyl)-6-(trifluoromethyl)pyridin-4-amine] | ≤ 50 | 31 to 60 | – | 251 to 1000 |
| FC(F)(F)c1cc(NCc2cnc(-c3ccc(C4CC4)cc3)nc2)ccn1 [Compound 107, N-((2-(4-Cyclopropylphenyl)pyrimidin-5-yl)methyl)-2-(trifluoromethyl)pyridin-4-amine] | 51 to 250 | – | > 10 | 251 to 1000 |
| FC(F)(F)c1cc(NCc2cn(-c3ccc(Oc4cccc(Cl)c4)cc3)nn2)ccn1 [Compound 030, N-((1-(4-(3-Chlorophenoxy)phenyl)-1H-1,2,3-triazol-4-yl)methyl)-2-(trifluoromethyl)pyridin-4-amine] | ≤ 50 | > 60 | – | – |
| COc1ccc(-c2ncc(CNc3ccnc(C(F)(F)F)c3)s2)cc1C [Compound 074, N-((2-(4-Methoxy-3-methylphenyl)thiazol-5-yl)methyl)-2-(trifluoromethyl)pyridin-4-amine] | 51 to 250 | – | > 25 | 251 to 1000 |
